Measured values: PMC9170688, “Gametocyte-specific and all-blood-stage transmission-blocking chemotypes discovered from high throughput screening on Plasmodium falciparum gametocytes” (Communications Biology, 2022)
Entries after “also recorded” stand apart in the source; their conditions may differ.

Assays:
[1] = system: P. falciparum NF54 hsp86-PpyRE13 gametocytes; test: P. falciparum gametocyte luminescence assay (PfLuc), line NF54 hsp86-PpyRE13; type: cell-based, Plasmodium falciparum; conditions: for IC50: Plasmodium falciparum, NF54, read-out: Pf Gametocytes NF54 HSP86 (IC50 nM); for gametocyte specificity / selectivity (gametocytes vs asexual stages): NF54 hsp86-PpyRE13, ratio of asexual stage (pLDH) to gametocyte (PfLuc) IC50
Description: (§1) To exclude false positive compounds that may interfere with the click beetle CBG99 luciferase signal and to confirm the activity on gametocytes produced by other P. falciparum lines, we tested the above 638 compounds at a single concentration of 10 µM on gametocytes from two NF54 strain derived lines: pfs16-GFP-PyLUC (Photinus pyralis luciferase under the same pfs16 promoter)[14],[16],[27] and hsp86-PpyRE13 that was generated for this work to express the mutated Photinus pyralis PpyRE13 luciferase in gametocytes under the promoter of the pfhsp86 gene.
(§2) With the selected 84 compounds, the subsequent step aimed at determining the gametocyte inhibition potency and the parasite stage selectivity between the gametocytes and the asexual stages in the NF54 hsp86-PpyRE13. […] Similar data were obtained considering the gametocyte IC50 values measured in the NF54 pfs16-GFP-PyLUC strain (see Supplementary Data 2).
(§3) Parasite gametocyte luminescence assays were performed in 384-well plates (Thermo, 4332, USA) by infected red blood cells seeded at 40 µL/well at a haematocrit of 0.625% for the strain 3D7elo1-pfs16-CBG99, 1.875% for both strains NF54 hsp86-PpyRE13 and NF54 pfs16-GFP-PyLUC. Assay were performed in the medium: 10.44 g/L RPMI 1640 Medium (Gibco, 51800043), 5.95 g/L HEPES (Sigma, H4034), 50 mg/L Hypoxantine (Sigma, 56700), 10% heat inactivated human serum, 10 ml of Neomycin solution (Sigma, N1142) and 2.1 g/L NaHCO3 (Sigma, 144-55-8). Compounds or DMSO as control were pre dispensed on plates, from 10 mM DMSO stock solutions, via an acoustic droplet ejection device (ATS-100, EDC Biosystems) to achieve the final desired concentration. Assay plates were incubated for 48 h at 37 °C in 4% CO2, 3% O2, and 93% N2 modified atmosphere. After incubation, 20 µL/well of a solution of luciferin (Regis, 1-360242-200) potassium/sodium salt (300 µg/ml) are added to the assay plates and read at suitable luminescence detection after 1 min incubation at room temperature. The whole HTS was performed in 7 rounds of 30–80 plates each in two months’ time.

[2] = system: P. falciparum NF54 hsp86-PpyRE13 asexual stages; test: P. falciparum asexual stage assay (pLDH); type: cell-based, Plasmodium falciparum; conditions: Plasmodium falciparum, NF54, read-out: NF54 Hsp86 PpYRE13 (IC50 nM)
Description: as §2
Parasite proliferation assays were performed in 384-well plates (Thermo, 4332, USA) with a starting parasitemia of 0.25% at a haematocrit of 2% by quantification of parasite lactate dehydrogenase (pLDH). Compounds or DMSO as control were pre dispensed on plates, from 10 mM DMSO stock solutions, via an acoustic droplet ejection device (ATS-100, EDC Biosystems) to achieve de final desired concentration. Assay plates were incubated for 72 h at 37 °C in 4% CO2, 3% O2, and 93% N2 modified atmosphere. After the incubation period, plates are frozen at −80 °C for two h and then thawed at room temperature for 2 h. Then, 50 µL of the developer solution (70 mM Tris-HCl pH 8.0, 0.5% Tween-20, 100 mM Lithium L-Lactate, 125 µM nitro blue tetrazolium, 2 U/ml diaphorase and 100 µM 3-Acetylpyridine Adenine Dinucleotide) are added to each well and let to react for 10 min. Absorbance was then read at 650 nm by a suitable spectrophotometer.

[3] = system: P. falciparum NF54 pfs16-GFP-PyLUC gametocytes; test: P. falciparum gametocyte luminescence assay (PfLuc), line NF54 pfs16-GFP-PyLUC; type: cell-based, Plasmodium falciparum; conditions: Plasmodium falciparum, NF54, read-out: Pf Gametocytes NF54 pfs16 (IC50 nM)
Description: as §1, §2, §3

[4] = system: P. falciparum strain NF54-hsp70-luc stage V gametocytes fed to Anopheles stephensi mosquitoes; test: whole plant or invertebrate; type: in vivo, Plasmodium falciparum; conditions: for transmission blocking activity in SMFA (words, rank): tested at 1 and 10 µM
Description: The above selected 30 compounds were subjected to a phenotypic male gamete exflagellation assay. This assay measures the viability of male gametocytes by quantitating the final step of maturation into motile microgametes in vitro[24]. This process naturally occurs in the mosquito gut within minutes from the blood meal. The acquisition of time lapse videos of gamete motility in bright field microscopy and the subsequent analysis to count exflagellation centres were performed in an automated HTS format in 384-well plates. The compounds were tested in two independent biological replicates at the concentration of 1 µM. […] The standard membrane feeding assay (SMFA) is used to measure the parasite transmission through mosquito. In this assay, mature stage V gametocytes of the P. falciparum strain NF54-hsp70-luc were treated with 1 and 10 µM of the nine selected compounds for 24 h, added with human red blood cells and serum to achieve a haematocrit of 50% and then fed to mosquitoes. Luminescence was analyzed in the mosquito salivary glands 8 days post-feeding.
SMFA was performed commercially by TropiQ Health Sciences (Nijmegen, The Netherlands). Test samples were diluted in DMSO and then in RPMI medium (Gibco, 51800043) to achieve a final DMSO concentration of 0.1%. Diluted samples were combined with stage V gametocytes from P. falciparum strain NF54-hsp70-luc and incubated for 24 h. Subsequently, human red blood cells and human serum with the sample were added to achieve a haematocrit of 50%. The blood meal was fed to two-day old Anopheles stephensi mosquitoes that were starved the night prior to the blood meal. […] Mosquito infection was analyzed 8 days post-feeding by luminescence measurements of whole mosquitoes as described previously. For each feeder, luminescence intensity was analyzed in 15–24 mosquitoes per feeder (N = 1, n = 15–24). Luminescence background levels were determined from 15–24 uninfected mosquitoes. Controls: vehicle (0.1% DMSO) in duplicate.

HeLa cells = test: HeLa cell proliferation assay (CellTiter Glo); type: cell-based, human; conditions: Homo sapiens
Description: In addition, we tested the 84 compounds in a dose-response fashion on HeLa cells to quantitatively monitor their cytotoxicity potential.
HeLa cells (CCL-2, ATCC, USA) were cultured in DMEM without phenol red (Thermo, 11880, USA) + 10% FBS + 1X PenStrep + 1X Gln. They were plated in a 384-well plate (Thermo, 4334-11, USA) to a density of 2000 cells per well and let recover for 4 h at 37 °C, 5% CO2 in a humidified atmosphere. After the recovery, compounds were transferred to assay plates as per compound preparation method. Assay plates were then incubated at 37 °C, 5% CO2 in a humidified atmosphere for 72 h. Cell viability was measured by the CellTiTer Glo (Promega, G8080, USA) as per manufacturer instruction.

For OC(c1ccc(Cl)cc1)C1CCN(CCCN2CCC(C(O)c3ccc(Cl)cc3)CC2)CC1 (centres unmarked) [Compound 13], the IC50 [1] was 1600 nM, the IC50 [2] was 1740 nM and the IC50 [3] was 582 nM. The “SMFA (average # of events) 1 µM” value ([4]; 1 µM) was 488.21 ± 436.95, the “SMFA (average # of events) 10 µM” value [4] was 7.92 ± 1.44 and the “transmission blocking activity in SMFA (words, rank)” value (“transmission blocking activity” below) ([4]; 24 h treatment) was “second most active”. For the same compound, the IC50 (HeLa cells) was 4510 nM.
Cc1ccc2nc(-c3ccccc3)c(CSc3cccc[n+]3[O-])n2c1 [Compound 16] was tested, and the “gametocyte specificity / selectivity (gametocytes vs asexual stages)” value [1] was “around 6 fold”, the IC50 [1] was 219 nM and the IC50 [2] was 1270 nM. The IC50 [3] was 167 nM, the “SMFA (average # of events) 1 µM” value ([4]; 1 µM) was 1226.92 ± 1130.89 and the “SMFA (average # of events) 10 µM” value [4] was 9.5 ± 9.34. The “transmission blocking activity” value ([4]; 24 h treatment) was “third most active” and the IC50 (HeLa cells) was 9510 nM.
In the case of COc1ccccc1Cn1cc2c(-c3ccc(F)cc3)nnc-2c2cc(OC)c(OC)cc21 [Compound 31], the IC50 [1] was 496 nM, the IC50 [2] was 967 nM and the IC50 [3] was 277 nM. The “SMFA (average # of events) 1 µM” value ([4]; 1 µM) was 2637.13 ± 1570.14, the “SMFA (average # of events) 10 µM” value [4] was 1559.87 ± 983.2 and the “transmission blocking activity” value ([4]; 24 h treatment) was “moderate transmission blocker”. The IC50 (HeLa cells) was 5000 nM.
With Clc1ccc(Nc2nc(-c3ccccn3)cs2)nc1 [Compound 39] the IC50 [1] was 382 nM, the IC50 [2] was 540 nM and the IC50 [3] was 308 nM. The “SMFA (average # of events) 1 µM” value ([4]; 1 µM) was 1612.33 ± 1234.03, the “SMFA (average # of events) 10 µM” value [4] was 7.33 ± 2.82 and the “transmission blocking activity” value ([4]; 24 h treatment) was “efficiently blocks parasite transmission”. For the same compound, the IC50 (HeLa cells) was 2950 nM.
COc1cc(CNCC2CCNCC2)ccc1OCc1cccc(Cl)c1 [Compound 53] gave an IC50 [1] of 1820 nM, an IC50 [2] of 2360 nM and an IC50 [3] of 876 nM. For the same compound, the “SMFA (average # of events) 1 µM” value ([4]; 1 µM) was 10.04 ± 12.81, the “transmission blocking in SMFA” value ([4]; 1 µM, 24 h treatment) was “most active; also recorded: equivalent to that of the positive control MMV0048” and the “SMFA (average # of events) 10 µM” value [4] was 6.29 ± 1.85. The inhibition at 1 µM ([4]; read-out: inhibition of parasite transmission (SMFA)) was roughly 100% and the IC50 (HeLa cells) was 5340 nM.
Cc1ccc(Nc2cc(C)nc(Nc3ccc(NC(=O)c4cc5ccccc5oc4=O)cc3)n2)cc1 [Compound 63] gave an IC50 [1] of 1870 nM, an IC50 [2] of 1730 nM and an IC50 [3] of 225 nM. The “SMFA (average # of events) 1 µM” value ([4]; 1 µM) was 2365.33 ± 1952.29, the “SMFA (average # of events) 10 µM” value [4] was 6.33 ± 1.79 and the IC50 (HeLa cells) was 8690 nM.
COc1ccc(Nc2cc(C)nc(Nc3ccc(NC(=O)c4cc(C)cc(C)c4)cc3)n2)cc1 [Compound 64] was tested, and the IC50 [1] was 215 nM, the IC50 [2] was 437 nM and the IC50 [3] was 264 nM. The “SMFA (average # of events) 1 µM” value ([4]; 1 µM) was 3707.46 ± 3510.94, the “SMFA (average # of events) 10 µM” value [4] was 3885.67 ± 4295.41 and the IC50 (HeLa cells) was 8100 nM.
In the case of COc1ccc(NC(=O)Nc2ccc(Nc3nc(C)cc(Nc4ccc(C)cc4)n3)cc2)cc1 [Compound 65], the IC50 [1] was 431 nM, the IC50 [2] was 904 nM and the IC50 [3] was 480 nM. For the same compound, the “SMFA (average # of events) 1 µM” value ([4]; 1 µM) was 4000.86 ± 3085.37, the “SMFA (average # of events) 10 µM” value [4] was 5.96 ± 1.99 and the IC50 (HeLa cells) was 4500 nM.
With O=C(c1ccc([N+](=O)[O-])o1)N1CCC(Cn2cnc3ccccc32)CC1 [Compound 69] the “gametocyte specificity / selectivity (gametocytes vs asexual stages)” value [1] was “around six”, the IC50 [1] was 1500 nM and the IC50 [2] was 6150 nM. For the same compound, the IC50 [3] was 555 nM, the “SMFA (average # of events) 1 µM” value ([4]; 1 µM) was 2021.92 ± 1839.86 and the “SMFA (average # of events) 10 µM” value [4] was 6.17 ± 1.81. The IC50 (HeLa cells) was 11300 nM.
